Data reported in paper PMC8588536, “Iridal-Type Triterpenoids Displaying Human Neutrophil Elastase Inhibition and Anti-Inflammatory Effects from Belamcanda chinensis” (Molecules, 2021).
“Also recorded” adds a separate entry of the source.

What was measured:
Type in all cases: cell-based, mouse
[1] = tested on: NF-κB p65 in LPS-stimulated RAW264.7 cells; test: NF-κB nuclear translocation, immunocytochemistry; details: pre-treatment 2 h prior to LPS 1 µg/mL for 16 h
Procedure: RAW264.7 cells cultured on round cover slips coated with poly-L-lysine were treated with triterpenoids (1 or 3 µg/mL) 2 h prior to LPS treatment, followed by LPS (1 µg/mL) for 16 h. The cells were washed with 1 x phosphate buffered saline (PBS) and fixed with 4% paraformaldehyde for 30 min. After washing the fixed cells with PBS, the cells were permeabilized with a blocking buffer (1% normal goat serum and 0.2% Triton X-100 in PBS) for 30 min at room temperature, and were incubated with an anti-NF-κB p65 antibody (1:200 dilution, Cell Signaling Technology, Danvers, MA, USA) at 4 °C overnight. After three washes in PBS, the cells were incubated in the dark for 1 h with the mixture of FITC-conjugated anti-rabbit IgG fluorescent secondary antibody diluted at 1:500 in PBS. Finally, the cells were stained with 2 µg/mL Hoechst for nuclei staining. The cells were washed with PBS, wet-mounted on glass slides, and observed using a confocal laser-scanning microscope (Olympus, Tokyo, Japan). The negative control (NC) was analyzed by omitting the primary antibody.

[2] = tested on: LPS-stimulated RAW264.7 cells; test: LPS-induced morphological changes (macrophage activation); details: pre-treatment 1 or 3 µg/mL
Procedure: The mouse macrophage cell line RAW264.7 was obtained from the American Type Culture Collection (ATCC, Manassas, VA, USA). The cells were cultured in DMEM supplemented with 10% fetal bovine serum (FBS), penicillin (100 U/mL), and streptomycin (100 μg/mL) at 37 °C with 5% CO2. The medium was replaced every 2 days. After treatment with chemicals, the cell morphological changes were observed under a microscope and images are captured before cell viability assay.

[3] = tested on: IL-1β mRNA in LPS-stimulated RAW264.7 cells; test: IL-1β mRNA expression by RT-PCR; details: 1 or 3 µg/mL, n = 6, p < 0.05
Procedure: (§1) Total RNA was isolated from cultured RAW264.7 cells using TRIzol reagent (Ambion®, Carlsbad, CA, USA) according to the manufacturer’s instructions. First strand cDNA was synthesized from the total RNA (3 μg) using oligo dT (DiaStar RT Kit, SolGent, Daejeon, Korea) and was used as a template for PCR amplification with G-Taq polymerase (Cosmogenetech, Seoul, Korea). The first-strand cDNA was quantified using a spectrophotometer (NanoDrop® ND-1000, NanoDrop Technologies, Wilmington, […], USA). The quantified cDNA was used as a template. PCR assay was performed with specific primers for inducible nitric oxide (iNOS), IL-1β, and TNF-α. The PCR steps included initial denaturation at 94 °C for 5 min, then 28 cycles at 94 °C for 30 s, 57 °C for 30 s, and 72 °C for 30 s, and a final extension step at 72 °C for 10 min. The amplified PCR products were separated in 1.5% agarose gel, and the gel was stained with ethidium bromide. The bands were visualized using the iBright^TM CL1500 imaging system (Thermo Scientific Fisher/Life Technologies Holdings Pte Ltd., Singapore). The DNA fragments were directly sequenced with the ABI PRISM® 3100-Avant Genetic Analyzer (Applied Biosystems, Carlsbad, CA, USA).

[4] = tested on: iNOS mRNA in LPS-stimulated RAW264.7 cells; test: iNOS mRNA expression by RT-PCR; details: 1 or 3 µg/mL, LPS 1 µg/mL; n = 5, p < 0.05
Procedure: as §1

[5] = tested on: NO production in LPS-stimulated RAW264.7 cells; test: Nitrite levels (NO production), Griess method; details: 1 or 3 µg/mL 2 h prior to LPS 1 µg/mL for 16 h; p < 0.05
Procedure: Nitrite levels were determined using the Griess method, as described previously (Jeong et al., 2016). Briefly, RAW264.7 cells (5 × 10^4 cells/well) were cultured in a 24-well plate. The cells were pretreated with triterpenoids (1 or 3 µg/mL) 2 h prior to lipopolysaccharides (LPS, 1 µg/mL) treatment for 16 h. Supernatants were collected and centrifuged at 2451× g for 10 min. The (50 μL) of supernatants were mixed with equal volumes of Griess reagent (1% sulfanilamide, 0.1% n-l-naphthylethy-lenediamine dihydrochloride, and 2% phosphoric acid), and incubated for 10 min. The optical density was measured at 550 nm, and the nitrite levels were calculated from a standard curve generated from sodium nitrite.

[6] = tested on: TNF-α in LPS-stimulated RAW264.7 cells; test: TNF-α concentration by ELISA; details: 1 or 3 µg/mL 2 h prior to LPS 1 µg/mL for 16 h; n = 6, p < 0.05
Procedure: RAW264.7 cell (2 × 10^5 cells/well) were cultured in a 6-well plate for 24 h and treated with compounds (1 or 3 µg/mL) 2 h prior to LPS treatment, followed by LPS (1 µg/mL) for 16 h. The concentration of pro-inflammatory cytokines in the collected supernatant was quantified using an ELISA kit (R&D system, Minneapolis, MN, USA) according to the manufacturer’s instructions. Briefly, 50 μL of assay diluent, sample, and standards were added to the ELISA well plate, which were pre-coated with anti-mouse IL-1β and TNF-α antibody. The plates were then covered with adhesive strip, agitated, and incubated for 2 h at room temperature. The ELISA well-plate was washed five times with a wash buffer, then 100 μL of mouse IL-1β and TNF-α conjugates was added and incubated at room temperature for 2 h. The plate was washed five times, 100 μL of substrate solution was added to each well, and incubated for 30 min in the dark. The reaction was quenched by the addition of 100 μL stop solution to each well, and the absorbance was read 450 nm/570 nm with an ELISA reader (Molecular Devices, Sunnyvale, CA, USA).

SMILES | NF-κB translocation to the nucleus (immunocytochemical staining) [1] | effect on LPS-induced morphological changes [2] | LPS-upregulated IL-1β mRNA level [3] | LPS-induced iNOS mRNA upregulation [4] | LPS-induced NO production [5] | LPS-upregulated TNF-α concentration [6]
CC(C)=CCC/C(C)=C/C[C@@H](O)/C(C)=C/CC[C@@]1(C)[C@H](CCCO)/C(=C(/C)C=O)CC[C@]1(C)O [Compound 1, isoiridogermanal] | suppressed | ameliorated | noticeably decreased | significantly reduced | significantly reduced | noticeably decreased
CC(C)=CCCC(C)=CCC(O)C(C)=CCCC1(C)C(CCCO)C(=C(C)C=O)CCC1(C)O (stereo not drawn) [Compound 2, iridobelamal A] | suppressed | ameliorated | noticeably decreased | significantly reduced | significantly reduced; also recorded: dose-dependent inhibition | noticeably decreased
